Reference: PubChem BioAssay AID449764 (Southern Research Specialized Biocontainment Screening …, 2010)

test system: Mycobacterium tuberculosis H37Rv growth inhibition, no glycerol; experiment: Mycobacterium tuberculosis H37Rv growth inhibition, no glycerol, confirmatory dose response (AID 449764); conditions: not given;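 further: growth read after 7 days of incubation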

SMILES	IC50 [µM]
CC(C)Oc1ccc(C(=O)N/N=C/c2ccc(-c3ccc(S(=O)(=O)Nc4ncccn4)cc3)o2)cc1	55.8
Cc1cc2oc3ccc(NCCCn4ccnc4)cc3c(=O)c2cc1C	23.2
CCOC(=O)Cn1c(C)c(Br)c(=O)c2cccc(C)c21	23
CCCCNC(=S)Nc1ccc2cn[nH]c2c1	12
N#Cc1cccc(NC(=O)N2CCC(c3nc4c(nnn4Cc4cccc(Cl)c4)c(=O)[nH]3)CC2)c1	21.2
O=C(c1cc([N+](=O)[O-])cc([N+](=O)[O-])c1)N(Cc1nnc(-c2ccccc2Cl)o1)C1CC1	15.8
COc1ccc(C(CCN2CCCCC2)c2c(OC)cc(OC)c3c(-c4ccccc4)cc(=O)oc23)cc1 (stereo not drawn)	18.9
C[Se]C[C@@H](N)C(=O)O	89.4
CCCn1nc(C(=O)NNC(=O)c2ccc(C)c(C)c2)c2ccccc2c1=O	24.6
Oc1ccc(N=Nc2n[nH]c(-c3ccc(Cl)cc3)n2)cc1	12.9
CCSc1ncc(/C=N/Nc2ccccc2)n1C	82.6
CN(C)c1ccc(N=Nc2ccccc2C(=O)OCC(=O)NCC2CCCCC2)cc1	22.1
CCOC(=O)N1CCN(Cc2cc(Cl)c3cccnc3c2O)CC1	21.8
CCOc1cc(-c2c(C#N)c(=O)[nH]c3c2c(C)nn3-c2ccc(F)cc2)ccc1O	4.87
Cc1cc(C)n(-c2nc(NCCN(C)C)c3c4c(sc3n2)CCCC4)n1	15.6
CC(=O)c1ccc(N2CCC(c3cc(-c4ccc(Cl)cc4Cl)n[nH]3)CC2)c([N+](=O)[O-])c1	24.3
Cc1ccc(C#CC[N+]2(CC#Cc3ccc(C)cc3)CCCCC2)cc1	21.4

SMILES	IC50 [µM]
COc1cc(C(=O)N/N=C/c2cc([N+](=O)[O-])cs2)cc(OC)c1OC	8.58
O=C(CCl)Nc1nccs1	4.87
O=C(CSc1nc2ccccc2c(=O)[nH]1)NCc1ccc(Cl)cc1	2.78
CN(C)CCCN1c2ccccc2Sc2ccc(Cl)cc21	46.6
COc1cc(C#Cc2c(-c3cncn3C)n(C)c3ccc(-c4cnc(N5CCOCC5)nc4)cc23)cc(OC)c1	49.5
CCCCN(C)CCNC(=O)c1ccc(Cn2c(=S)[nH]c3ccc(Br)cc3c2=O)cc1	18.9
CCCCn1c(O)c(/C=C2/C=CC=N2)c(=O)[nH]c1=O	12.1
Cc1onc(-c2c(F)cccc2Cl)c1C(=O)O/N=C(\N)c1ccc([N+](=O)[O-])o1	14.4
O=C(Nc1cc(C(F)(F)F)ccc1Cl)C(Sc1cccc[n+]1[O-])c1ccccc1 (stereo not drawn)	43.7
O=C(COC(=O)c1cccs1)c1ccccc1	45.8
COCCCNC(=O)/C(C#N)=C/c1c(N2CCN(c3cccc(Cl)c3)CC2)nc2c(C)cccn2c1=O	38.5
CCOc1ccc(NC(=O)c2sc3nc(C)nc(N4CCOCC4)c3c2C)cc1	30.3
CCCCCn1c(=O)c2ccccc2n2c(CCl)nnc12	1.36
C/C(Cl)=C\COc1cc(C)nc2c(Br)cccc12	21.2
CC(C)(C)c1ccc(C(=O)N2CCN(CCNC(=O)C(=O)NCc3ccc(Cl)cc3)CC2)cc1	24.7
COc1ccc(N(CC(=O)Nc2cc(Cl)ccc2C)S(=O)(=O)c2c(C)n[nH]c2C)cc1	40.5

same assay, conditions: measured here: IC90 growth inhibition

SMILES	IC90 [µM]
CC(C)Oc1ccc(C(=O)N/N=C/c2ccc(-c3ccc(S(=O)(=O)Nc4ncccn4)cc3)o2)cc1	89.7
Cc1cc2oc3ccc(NCCCn4ccnc4)cc3c(=O)c2cc1C	25.7
CCOC(=O)Cn1c(C)c(Br)c(=O)c2cccc(C)c21	26.6
CCCCNC(=S)Nc1ccc2cn[nH]c2c1	31.8
N#Cc1cccc(NC(=O)N2CCC(c3nc4c(nnn4Cc4cccc(Cl)c4)c(=O)[nH]3)CC2)c1	23.3
O=C(c1cc([N+](=O)[O-])cc([N+](=O)[O-])c1)N(Cc1nnc(-c2ccccc2Cl)o1)C1CC1	23.5
COc1ccc(C(CCN2CCCCC2)c2c(OC)cc(OC)c3c(-c4ccccc4)cc(=O)oc23)cc1 (stereo not drawn)	26.8
C[Se]C[C@@H](N)C(=O)O	95.7
CCCn1nc(C(=O)NNC(=O)c2ccc(C)c(C)c2)c2ccccc2c1=O	27.9
Oc1ccc(N=Nc2n[nH]c(-c3ccc(Cl)cc3)n2)cc1	32.4
CC(=O)Oc1ccc(/C=N\NC(=O)c2cc3c(ccc4ccccc43)o2)cc1	> 100
CCSc1ncc(/C=N/Nc2ccccc2)n1C	> 100
CN(C)c1ccc(N=Nc2ccccc2C(=O)OCC(=O)NCC2CCCCC2)cc1	24.9
CCOC(=O)N1CCN(Cc2cc(Cl)c3cccnc3c2O)CC1	24.7
CCOc1cc(-c2c(C#N)c(=O)[nH]c3c2c(C)nn3-c2ccc(F)cc2)ccc1O	8.73
Cc1cc(C)n(-c2nc(NCCN(C)C)c3c4c(sc3n2)CCCC4)n1	21.4
O=c1c2ccccc2nc(/C=C/c2ccccc2)n1-c1ccc(O)cc1	> 50
CC(=O)c1ccc(N2CCC(c3cc(-c4ccc(Cl)cc4Cl)n[nH]3)CC2)c([N+](=O)[O-])c1	> 100

SMILES	IC90 [µM]
Cc1ccc(C#CC[N+]2(CC#Cc3ccc(C)cc3)CCCCC2)cc1	24.8
COc1cc(C(=O)N/N=C/c2cc([N+](=O)[O-])cs2)cc(OC)c1OC	> 100
O=C(CCl)Nc1nccs1	9.14
O=C(CSc1nc2ccccc2c(=O)[nH]1)NCc1ccc(Cl)cc1	3.22
CN(C)CCCN1c2ccccc2Sc2ccc(Cl)cc21	60
COc1cc(C#Cc2c(-c3cncn3C)n(C)c3ccc(-c4cnc(N5CCOCC5)nc4)cc23)cc(OC)c1	55
CCCCN(C)CCNC(=O)c1ccc(Cn2c(=S)[nH]c3ccc(Br)cc3c2=O)cc1	27.9
CCCCn1c(O)c(/C=C2/C=CC=N2)c(=O)[nH]c1=O	23.6
Cc1onc(-c2c(F)cccc2Cl)c1C(=O)O/N=C(\N)c1ccc([N+](=O)[O-])o1	27.6
O=C(Nc1cc(C(F)(F)F)ccc1Cl)C(Sc1cccc[n+]1[O-])c1ccccc1 (stereo not drawn)	48.2
O=C(COC(=O)c1cccs1)c1ccccc1	> 100
COCCCNC(=O)/C(C#N)=C/c1c(N2CCN(c3cccc(Cl)c3)CC2)nc2c(C)cccn2c1=O	> 100
CCOc1ccc(NC(=O)c2sc3nc(C)nc(N4CCOCC4)c3c2C)cc1	57
CCCCCn1c(=O)c2ccccc2n2c(CCl)nnc12	6.07
C/C(Cl)=C\COc1cc(C)nc2c(Br)cccc12	24.4
CC(C)(C)c1ccc(C(=O)N2CCN(CCNC(=O)C(=O)NCc3ccc(Cl)cc3)CC2)cc1	46.7
COc1ccc(N(CC(=O)Nc2cc(Cl)ccc2C)S(=O)(=O)c2c(C)n[nH]c2C)cc1	52.7
